The numbers were not newly measured in patent US20050186294A1 (priority 1999, published 2005), which cites them from elsewhere.

Like-named read-outs stand apart in the source and are kept apart here.

For data set [1] the following is noted: larger molecular weight molecules such as Testosterone.
The subject of a further data set is penile erection. Conditions: oral, men.
The target of a further data set is 5 Phosphodiesterase (Homo sapiens, UniProt O76074). The following applies: in vitro, similar Molar concentrations.
The mark [2] stands for this setting: after oral arginine supplementation (6 g).

Turning to `CC1CCC(C(C)C)C(O)C1` (stereo not drawn) [Menthol], the “increase of membrane permeability” value in data set [1] is recorded as 2-4 times.

Regarding `N=C(N)NCCC[C@H](N)C(=O)O` [L-arginine], the “L-arginine level in the blood” value by setting is: (after infusion of 6 g) 822 nM/ml; (after infusion of 30 g) 6223 nmol/mL. For the same molecule, the blood concentration under setting [2] was 310 µM. Further, the “detectable cGMP excretion rates in urine” value with cGMP (after infusion of 30 g and 6 g) is recorded as “rise in detectable cGMP excretion rates in urine”. Also, the “increases in detectable cGMP” value in the data set with cGMP (setting [2]) is “not statistically significant”.

For the molecule `CCCc1nn(C)c2c(=O)[nH]c(-c3cc(S(=O)(=O)N4CCN(C)CC4)ccc3OCC)nc12` [sildenafil], the “effectiveness to create a penile erection” value with penile erection (after first use) is 54%; in the data set with penile erection (by the eighth use), 86%. For the same molecule, the “inhibition of 5 Phosphodiesterase activity” value on 5 Phosphodiesterase was 85%.
